Test results as given in article PMC5770468, “Cardiac glycoside/aglycones inhibit HIV-1 gene expression by a mechanism requiring MEK1/2-ERK1/2 signaling” (Scientific Reports, 2018).

Assays:
[1] = test system: HeLa rtTA-HIV-ΔMls cells; assay: In vitro therapeutic index (CC20/IC50) in HeLa rtTA-HIV-ΔMls cells; type: cell-based, human
Excerpt: Without median toxic dose (TD50) and half-maximal effective concentration (EC50) data available to calculate TIs (in vivo) from HIV patients treated with CSs, we determined the following TIs for each cell type treated with a CS (summarized in Supplementary Table S1): in vitro TIs from HeLa rtTA-HIV-ΔMls cells using CC20/IC50 (instead of CC50/IC50), in vitro TIs from 24ST1NLESG cells using CC50/IC50, and ex vivo TIs from HIV-infected PBMCs using CC50/IC50 (at day 14 of culture approximated from available cell viability trends for CC50s of Supplementary Fig. S13 and inferred near maximal IC50s).
Supplementary Table S1. Comparison of the in vitro (IVTI) and ex vivo therapeutic indices (EVTIs) of CSs and their impact on the expression of essential HIV-1 proteins.
Notes: data for CC20, CC50, and IC50s for each drug/compound were estimated from dose response curves in Figures 1-2, Supplementary Table S1, Supplementary Figures S2, S5, and S13, and Wong et al.
">" means the estimate has not been accurately determined but is greater than the highest concentration […]
"( )" indicates preliminary data that was not shown. aCC20 instead of CC50 was estimated from dose response curves and used for calculation of IVTIs. bCells were treated at ~IC90of a CS.
(1 picture or pasted object on this page, not shown here)

[2] = test system: PBMCs from HIV-infected patients; assay: Cell viability by XTT in HIV-infected patient PBMCs; type: cell-based, human; details: up to 20 d of culture, relative to controls
Procedure: Figure 2 CSs inhibit the growth of clinical strains of HIV isolated from HIV infected patients. PBMCs from HIV infected patients were depleted of CD8^+ T cells (Supplementary Fig. S3), activated by anti-CD3 and anti-CD28 antibodies, and treated 20 d with indicated concentrations of drug/compound. HIV particle formation was quantitated by p24^CA ELISA of cell supernatants and viability of cells were assayed by XTT. […] (a–e) CSs potently impair the outgrowth of HIV from HIV-infected PBMCs (n = 3, mean, s.e.m.). Graphs of viral growth (p24 protein levels) and cell viability (gray circles, adjacent y-axis) of cells treated with drug/compounds (red triangles) or DMSO (black circles) are shown. The drug 3TC and the CS digoxin (d–e) were provided for comparison. […] Dose-response curves of CS effects on HIV replication (relative Gag expression, black circles) and cell viability (gray circles) were measured on day 14.
Human PBMCs were obtained for experiments from drug-naïve HIV-infected patients, depleted of CD8^+ T cells using Dynabeads CD8 (Invitrogen, #111.47D), activated with anti-CD3 and anti-CD28 antibodies, and treated as previously described and above[10],[11]. […] HIV growth in cultures was monitored by p24^CA ELISA of cell supernatants harvested (detailed below) and the effect of compounds on cell viability were monitored by XTT assay.

| SMILES | better in vitro TI than digoxin [1] [fold] | cell viability of HIV-infected PBMCs [2] |
| --- | --- | --- |
| C[C@@H]1O[C@@H](O[C@H]2C[C@@H](O)[C@]3(CO)[C@H]4[C@H](O)C[C@]5(C)[C@@H](C6=CC(=O)OC6)CC[C@]5(O)[C@@H]4CC[C@]3(O)C2)[C@H](O)[C@H](O)[C@H]1O [Ouabain] | 1.2 |  |
| C[C@]12CC[C@H](O)C[C@H]1CC[C@@H]1[C@@H]2CC[C@]2(C)[C@@H](C3=CC(=O)OC3)CC[C@]12O [Digitoxigenin] |  | no observable changes in cell viability |
| C[C@H]1O[C@@H](O[C@H]2[C@@H](O)C[C@H](O[C@H]3[C@@H](O)C[C@H](O[C@H]4CC[C@@]5(C)[C@H](CC[C@@H]6[C@@H]5CC[C@]5(C)[C@@H](C7=CC(=O)OC7)CC[C@]65O)C4)O[C@@H]3C)O[C@@H]2C)C[C@H](O)[C@@H]1O [Digitoxin] |  | no observable changes in cell viability |
